Assays:
[1] = test system: HPPD-tolerant soybean event SYHT0H2; experiment: Glasshouse: post-emergence HPPD herbicide damage with or without Sequestrene 138Fe, 7 DAA; format: in vivo; details: isoxaflutole, tembotrione
Procedure: (§1) Safening of Various HPPD-inhibiting Herbicides in HPPD-tolerant Soybean Events SYHT04R and SYHT0H2
(§2) An experiment is performed to determine whether the addition of chelating iron to the spray formulation can mitigate foliar bleaching injury from the HPPD herbicides mesotrione, bicyclopyrone, tembotrione, isoxaflutole, topramezone and pyrasulfatole when applied post-emergence to the HPPD-tolerant soybean events SYHT04R and SYHT0H2.
(§3) Soybean plants are grown in a glasshouse (24° C. day, 18° C. night; 65% relative humidity; 16 hour photoperiod). Two replicates are utilised in respect of SYHT0H2 (growth stage V1-V3) and three replicates are utilised in respect of SYHT04R (growth stage V1 to V3). Spray applications are applied post-emergence at […]. Herbicide damage was assessed 7 DAA (Days After Application).

[2] = test system: HPPD-tolerant soybean event SYHT04R; experiment: as above; format: in vivo; details: isoxaflutole, tembotrione
Procedure: as §1, §2, §3

SYHT0H2 soybeans [3] = experiment: Greenhouse: Sequestrene 138Fe rate series, percent injury from HPPD-inhibitors at 7 DAT; format: in vivo, soybean; details: mesotrione 420, bicyclopyrone 200, tembotrione 368, topramezone 72 g/ha
Procedure: Effect of Sequestrene® 138Fe on Percent Injury from Various HPPD-inhibitors on SYHT0H2 Soybeans. Injury Assessed at Seven Days after Treatment (7 DAT)
SYHT0H2 soybeans are grown in 4×4-inch pots filled with a greenhouse potting mix. When the plants reach the V2-V3 growth stage, they are treated with an HPPD inhibitor applied alone or in a tank mixture with Sequestrene 138Fe at various rates ranging from 140 g product/ha (equivalent to 8.4 g iron/ha) to 2240 g product/ha (equivalent to 134 g iron/ha).

[4] = test system: Velvetleaf (Abutilon theophrasti); experiment: Greenhouse weed control: HPPD inhibitors with or without Sequestrene 138Fe, velvetleaf; format: in vivo; details: percent velvetleaf control 19 DAT
Procedure: Effect of Tank Mix Applications of HPPD Inhibitors and Sequestrene® 138Fe on Velvetleaf Control. Percent Control Assessed 19 DAT
(§4) A greenhouse experiment is conducted to determine the effect of chelated iron on weed control in the greenhouse. Velvetleaf (Abutilon theophrasti) and common waterhemp (Amaranthus rudis) plants are grown in 4×4-inch pots filled with a greenhouse potting mix. When the plants reached the 2 to 3 inch height (2 to 3 leaf stage), they are sprayed with a reduced rate of an HPPD inhibitor alone or in a tank mix combination with Sequestrene 138Fe at 140 g/ha (equivalent to 8.4 g iron/hectare) or 280 g/ha (equivalent to 16.8 g iron/hectare). […] Observations on percent control are recorded 12, 19, and 25 days after treatment.

[5] = test system: common waterhemp (Amaranthus rudis); experiment: Greenhouse weed control: HPPD inhibitors with or without Sequestrene 138Fe, common waterhemp; format: in vivo; details: common waterhemp control 17 DAT
Procedure: as §4
Effect of Tank Mix Applications of Various HPPD Inhibitors and Sequestrene 138Fe on Common Waterhemp Control. Injury Assessed 17 DAT
An experiment is performed to look at the effect of applying iron chelates on control of Common Waterhemp using HPPD-inhibiting herbicides. Experiment design is analogous to that outlined in Experiment 3 above.

SYHT0H2 soybeans [6] = experiment: Greenhouse: water-soluble iron compounds safening mesotrione, maximum injury; details: in vivo
Procedure: An experiment is conducted to look at the safening effect of a variety of water-soluble iron-containing compounds. SYHT0H2 soybean plants are grown in small pots filled with a greenhouse potting mix. […] In all cases, mesotrione was applied at 420 g ai/ha and all treatments contained liquid ammonium sulphate at 2.5% v/v and NIS at 0.25% v/v. The application rates of iron-containing compounds indicated are iron equivalent rates. […] Percent injury levels were assessed 6, 9, and 16 days after treatment. Data presented are maximum injury occurring from any of the treatments at any time during the experiment.

SYHT0H2 soybeans [7] = experiment: Greenhouse: tank-mix and sequential Sequestrene 138Fe, HPPD-inhibitor maximum injury; format: in vivo, soybean
Procedure: Effect of Tank-mix and Sequential Application of Sequestrene® 138 on Mesotrione (Applied as Callisto®)—Maximum Injury in SYHT0H2 Soybeans
An experiment is conducted in the greenhouse to determine the effect of chelated iron (Sequestrene 138Fe containing 6% iron) on HPPD-inhibitor injury to SYHT0H2 soybeans. Soybeans are grown in pots filled with a greenhouse potting mix. When the plants reach the V2-V3 stage, they are sprayed with an HPPD-inhibitor herbicide applied alone (Treatment 1), or in tank mixture with Sequestrene 138Fe (Treatment 2), or sequentially with Sequestrene 138Fe applied 1 day before the HPPD inhibitor (Treatment 3). Sequestrene 138Fe is applied at 2240 g/ha (equivalent to 134 g iron/ha). All treatments are applied with liquid ammonium sulfate @ 2.5% v/v and a non-ionic surfactant (NIS) @ 0.25% v/v in 150 L/ha water. Observations on percent injury are recorded 5, 11, or 22 days after treatment. Data presented are maximum injury observed during the trial.

SYHT04R soybeans = experiment: Greenhouse: Sequestrene 138Fe safening of HPPD-inhibitors, injury 6 days after treatment; format: in vivo, soybean; details: 6 days after treatment (maximum injury), mesotrione 420, bicyclopyrone 200, isoxaflutole 280 g/ha
Procedure: Effect of Sequestrene® 138Fe on Various HPPD-inhibitors in SYHT04R Soybeans. Maximum Injury Assessed 6 Days after Treatment
A greenhouse experiment is conducted to determine if Sequestrene® 138Fe was effective in safening various other HPPD herbicide-tolerant soybean events, such as SYHT04R.
SYHT04R soybean plants are grown in 4×4-inch pots filled with a greenhouse potting mix. When the plants reached the V2-V3 growth stage, they are sprayed with an HPPD inhibitor alone or in combination with Sequestrene® 138Fe at 1120 g/ha (equivalent to 67.2 g iron/ha). […] Observations on percent injury are recorded at 6 and 20 days after treatment. Data presented is from the 6 days after treatment rating representing the maximum injury observed during the experiment.

SYHT04R soybean = experiment: Greenhouse: chelated Fe versus chelated Mn, bicyclopyrone maximum injury; format: in vivo; details: additive none, maximum injury of 5 and 9 days after treatment
Procedure: Effect of Chelated Fe and Chelated Mn on Safening SYHT04R Soybean from Bicyclopyrone Injury
A greenhouse experiment is conducted to determine if chelating agents containing nutrient elements other than Fe were also effective in safening HPPD herbicide-tolerant soybeans.
SYHT04R soybean plants are grown in 4×4-inch pots filled with a greenhouse potting mix. When the plants reached the V2-V3 growth stage, they are sprayed with an HPPD inhibitor alone or in combination with Sequestrene 138Fe or a solution containing 6% EDTA-chelated Mn. […] Observations on percent injury were recorded 5, and 9 days after treatment. Data presented are maximum injury observed during the experiment.

[8] = Sequestrene 138Fe 1000 g/ha, g ai/ha: mesotrione 200, bicyclopyrone, pyrasulfatole 100, topramazone 50
[9] = Sequestrene 138Fe 1000 g/ha, g ai/ha: mesotrione 800, bicyclopyrone, pyrasulfatole 400, topramazone 200
[10] = no Sequestrene 138Fe, g ai/ha: mesotrione 200, bicyclopyrone, pyrasulfatole 100, topramazone 50
[11] = no Sequestrene 138Fe, g ai/ha: mesotrione 800, bicyclopyrone, pyrasulfatole 400, topramazone 200
[12] = Sequestrene 138Fe 140 g/ha tank mix
[13] = Sequestrene 138Fe 280 g/ha tank mix
[14] = Sequestrene 138Fe 560 g/ha tank mix
[15] = Sequestrene 138Fe 1120 g/ha tank mix
[16] = Sequestrene 138Fe 2240 g/ha tank mix
[17] = Sequestrene 138Fe 0 g/ha, g ai/ha: mesotrione 26, isoxaflutole 26, bicyclopyrone 50, tembotrione 46, pyrasulfatole 22, topramezone 18
[18] = Sequestrene 138Fe 280 g/ha tank mix, g ai/ha: bicyclopyrone 50, tembotrione 46, pyrasulfatole 22, topramezone 18
[19] = Sequestrene 138Fe 140 g/ha tank mix, mesotrione 26, isoxaflutole 26 g ai/ha

Compound	Herbicide damage SYHT0H2 [1, 8]	Herbicide damage SYHT0H2 [1, 9]	Herbicide damage SYHT0H2 [1, 10]	Herbicide damage SYHT0H2 [1, 11]	Herbicide damage SYHT04R [2, 8]	Herbicide damage SYHT04R [2, 9]	Herbicide damage SYHT04R [2, 10]	Herbicide damage SYHT04R [2, 11]	% Injury [4, 17] [%]	% Injury [4, 18] [%]	% Injury [5, 17] [%]	% Injury [5, 18] [%]	further results
Cc1c(C(=O)c2cnn(C)c2O)ccc(S(C)(=O)=O)c1C1=NOCC1 [Topramezone, topramezone]	5	0	8	23	2	3	5	17	96	93	100	99	% Injury (SYHT0H2 soybeans [3]; Sequestrene 138Fe 0 g/ha): 8%; % Injury (SYHT0H2 soybeans [3]; [12]): 0%; % Injury (SYHT0H2 soybeans [3]; [13]): 0%; % Injury (SYHT0H2 soybeans [3]; [14]): 0%; % Injury (SYHT0H2 soybeans [3]; [15]): 0%; % Injury (SYHT0H2 soybeans [3]; [16]): 0%
iron DTPA [Sequestrene 330-Fe]													safening SYHT0H2 soybeans from mesotrione injury (SYHT0H2 soybeans [6]): effective
O=S(=O)([O-])[O-].[Fe+2] [Ferrous Sulfate (Fe2SO4), iron (II) sulphate (ferrous sulphate)]													safening SYHT0H2 soybeans from mesotrione injury (SYHT0H2 soybeans [6]): effective
Cc1nn(C)c(O)c1C(=O)c1ccc(C(F)(F)F)cc1S(C)(=O)=O [Pyrasulfatole, pyrasulfotole]	10	18	10	4	0	2	4	12	85	80	98	77	
CS(=O)(=O)c1cc(C(F)(F)F)ccc1C(=O)c1cnoc1C1CC1 [Isoxaflutole, isoxaflutole]									78		87		% Injury [4, 19]: 82%; % Injury [5, 19]: 88%
CS(=O)(=O)c1ccc(C(=O)C2C(=O)CCCC2=O)c(Cl)c1COCC(F)(F)F [Tembotrione, tembotrione]									98	99	99	99	% Maximum Injury (SYHT0H2 soybeans [7]; in vivo): 31%
bicyclopyrone	3	25	13	40	5	30	15	42	100	100	90	96	% Injury (SYHT04R soybeans; Sequestrene 138Fe 0 g/ha): 29%; % Injury (SYHT04R soybeans; Sequestrene 138Fe 1120 g/ha): 7%; % Maximum Injury (SYHT0H2 soybeans [7]; Sequestrene 138Fe 2240 g/ha applied 1 day before herbicide (Treatment 3, sequential), mesotrione 420, bicyclopyrone 200, tembotrione 368 g ai/ha): 12%; % Maximum Injury (SYHT0H2 soybeans [7]; herbicide alone (Treatment 1), mesotrione 420, bicyclopyrone 200, tembotrione 368 g ai/ha, maximum of 5, 11, 22 days after treatment): 25%; % Maximum Injury (SYHT0H2 soybeans [7]; tank mix with Sequestrene 138Fe 2240 g/ha (Treatment 2, simultaneous), mesotrione 420, bicyclopyrone 200, tembotrione 368 g ai/ha): 3%; % Injury (SYHT04R soybean): 29%; % Injury (SYHT0H2 soybeans [3]; Sequestrene 138Fe 0 g/ha): 23%; % Injury (SYHT0H2 soybeans [3]; [12]): 12%; % Injury (SYHT0H2 soybeans [3]; [13]): 10%; % Injury (SYHT0H2 soybeans [3]; [14]): 1%; % Injury (SYHT0H2 soybeans [3]; [15]): 0%; % Injury (SYHT0H2 soybeans [3]; [16]): 0%
